{"source": "patent US20130045952A1", "about": "“ABA Receptor Agonists for Increased Plant Stress Resistance” (Van Andel Research Institute, priority 2011, published 2013)", "type_in_all_cases": "biochemical", "key": {"His6-PYR1 / biotin-ABI2": {"target": "T1, His6-PYR1 / biotin-ABI2 (Arabidopsis thaliana, UniProt O49686)", "T1 construct": "made in house; host or cells: E. coli (stated for the PP2Cs; not expressly for PYR1)", "T1 sequence (O49686 1-191)": "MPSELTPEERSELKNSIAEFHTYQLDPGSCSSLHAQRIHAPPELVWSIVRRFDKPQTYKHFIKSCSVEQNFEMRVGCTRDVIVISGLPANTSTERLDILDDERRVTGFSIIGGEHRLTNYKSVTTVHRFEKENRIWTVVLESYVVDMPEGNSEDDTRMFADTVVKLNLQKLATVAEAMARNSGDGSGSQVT", "T1 sequence (O04719 101-423 partner limits assumed)": "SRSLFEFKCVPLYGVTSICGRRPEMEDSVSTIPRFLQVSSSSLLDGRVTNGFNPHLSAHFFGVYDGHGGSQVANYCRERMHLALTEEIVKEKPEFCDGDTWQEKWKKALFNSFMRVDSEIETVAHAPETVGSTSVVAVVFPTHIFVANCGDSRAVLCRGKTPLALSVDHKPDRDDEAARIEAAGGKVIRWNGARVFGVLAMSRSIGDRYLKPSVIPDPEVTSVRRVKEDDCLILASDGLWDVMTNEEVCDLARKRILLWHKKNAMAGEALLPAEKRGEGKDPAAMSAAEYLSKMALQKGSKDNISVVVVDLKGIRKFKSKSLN", "assay": "AlphaScreen dose response, PYR1-ABI2 interaction", "details": "100 nM His6-PYR1, 100 nM biotin-PP2C, 0-100 μM agonist; from dose response curves", "description": "(§1) Interactions between PYR/PYL and PP2Cs were assessed by luminescence-proximity AlphaScreen technology (Perkin Elmer). Briefly, biotinylated PP2Cs were attached to streptavidin-coated donor beads, and H6-tagged PYR/PYL receptors were attached to nickel-chelated acceptor beads. The donor and acceptor beads were brought into proximity by the interactions between PYR/PYLs and PP2Cs, which were measured with and without ligands. When excited by a laser beam of 680 nm, the donor beam emits singlet oxygen that activates thioxene derivatives in the acceptor beads, which releases photons of 520-620 nm as the binding signal. The experiments were conducted with 100 nM of PP2Cs and PYR/PYL proteins in the presence of 5 ug/ml donor and acceptor beads in a buffer of 50 mM MOPS, pH7.4, 50 mM NaF, […], and 0.1 mg/ml bovine serum albumin. The results were based on an average of three experiments with standard errors typically less than 10% of the measurements.\n(§2) The results shown in Table 5b were calculated from the dose response curves of the dependence of the interaction between 100 nM His6-PYR1 and 100 nM biotin-PP2C on the presence of 0-100 μM agonists determined by AlphaScreen luminescence proximity assay. Key (EC50 in μM): ++++=<5.0 μM; +++=5-10 μM; ++=10-20 μM; and +=>20-60 μM."}, "His6-PYR1 / biotin-ABI1": {"target": "T2, His6-PYR1 / biotin-ABI1 (Arabidopsis thaliana, UniProt O49686)", "T2 construct": "made in house; host or cells: E. coli (stated for the PP2Cs; not expressly for PYR1)", "T2 sequence (O49686 1-191)": "T1 sequence (O49686 1-191)", "T2 sequence (P49597 117-434 partner limits assumed)": "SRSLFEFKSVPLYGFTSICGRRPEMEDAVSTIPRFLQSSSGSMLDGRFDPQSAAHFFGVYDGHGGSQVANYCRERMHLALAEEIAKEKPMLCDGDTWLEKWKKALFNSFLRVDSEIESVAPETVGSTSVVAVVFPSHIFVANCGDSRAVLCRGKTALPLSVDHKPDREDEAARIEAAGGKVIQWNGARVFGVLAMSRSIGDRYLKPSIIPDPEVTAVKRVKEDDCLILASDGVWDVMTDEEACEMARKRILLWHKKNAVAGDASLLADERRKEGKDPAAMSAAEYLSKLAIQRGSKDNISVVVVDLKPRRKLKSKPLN", "assay": "AlphaScreen dose response, PYR1-ABI1 interaction", "details": "100 nM His6-PYR1, 100 nM biotin-PP2C, 0-100 μM agonist; from dose response curves", "description": "as §1, §2"}, "His6-PYL2 / biotin-PP2C": {"target": "T3, His6-PYL2 / biotin-PP2C (Arabidopsis thaliana, UniProt O80992)", "T3 construct": "PYL2 (residues 14-188), and HAB1 (residues 172-511) were prepared as recombinant proteins in E. coli; made in house; host or cells: E. coli", "T3 sequence (O80992 14-188)": "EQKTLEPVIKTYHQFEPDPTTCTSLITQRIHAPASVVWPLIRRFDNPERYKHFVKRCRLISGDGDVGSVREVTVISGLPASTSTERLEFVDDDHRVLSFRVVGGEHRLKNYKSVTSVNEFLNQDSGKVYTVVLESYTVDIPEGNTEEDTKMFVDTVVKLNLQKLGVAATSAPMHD", "assay": "AlphaScreen luminescence proximity assay, PYL2-PP2C interaction", "details": "for Stimulation of the interaction between PYL2 and PP2C (binding signal): 100 nM His6-PYL2, 100 nM biotin-PP2C, 100 μM agonist, normalized against a pyrabactin control", "description": "(§3) Mutant proteins were expressed as H6GST-fusion proteins and purified by glutathione sepharose chromatography. Protein-protein interactions were determined by luminescence proximity AlphaScreen assay. Biotinylated PP2C proteins for the luminescence proximity assay were generated by in vivo biotinylation of avitag-PP2C fusion proteins. PP2C phosphatase activity was measured by phosphate release from a SnRK2.6 phosphoprotein.\nas §1\n(§4) Values were determined in different experiments and normalized against a pyrabactin control. Blank spaces mean no experimental data is available. Key (photon counts (binding signal units) in Alphascreen luminescence proximity assay): “+++ is >75,000; ++ is 25,000−75,000; + is <25,000."}, "ABI2": {"target": "T4, ABI2 (Arabidopsis thaliana, UniProt O04719+O49686)", "T4 construct": "ABI1 (residues 117-434) and ABI2 (residues 101-423) were expressed as H6Sumo fusion proteins; H6Sumo (N); made in house; host or cells: E. coli BL21", "T4 sequence (O04719 101-423 limits assumed)": "T1 sequence (O04719 101-423 partner limits assumed)", "T4 sequence (O49686 1-191)": "T1 sequence (O49686 1-191)", "assay": "PP2C phosphatase activity assay, ABI2", "details": "200 nM PP2C; SnRK2.6 phosphopeptide substrate; None = 100", "description": "as §3\nPP2Cs and PYR/PYL proteins were pre-incubated at the indicated concentrations in 50 mM imidazole, pH 7.2, 5 mM MgCl2, 0.1% β-mercaptoethanol and 0.5 mg/ml BSA for 30 min at room temperature. Reactions were started by addition of 100 μM of a phosphopeptide corresponding to amino acids 170-180 of SnRK2.6 (HSQPK^pSTVGTP). This peptide is phosphorylated at a single residue corresponding to Ser175 in SnRK2.6, whose phosphorylation is required for SnRK2.6 kinase activity^32. Phosphate release from ^pS175 from the phosphopeptide was determined by colorimetric assay (BioVision)."}, "His6-PYR1 / biotin-PP2C": {"target": "T5, His6-PYR1 / biotin-PP2C (Arabidopsis thaliana, UniProt O49686)", "T5 construct": "made in house; host or cells: E. coli is stated for PYL1, PYL2 and the PP2Cs, not expressly for PYR1", "T5 sequence (O49686 1-191)": "T1 sequence (O49686 1-191)", "assay": "AlphaScreen luminescence proximity assay, PYR1-PP2C interaction", "details": "for Stimulation of the interaction between PYR1 and PP2C (binding signal): 100 nM His6-PYR1, 100 nM biotin-PP2C, 100 μM agonist, normalized against a pyrabactin control", "description": "as §3, §1, §4"}, "[1]": {"details": "purified proteins in vitro, HAB1, ABI1, ABI2"}}, "data": [{"smiles": "O=C1Nc2ccc(S(=O)(=O)NCc3ccccn3)c3cccc1c23", "note": "[Compound 1]", "values": [{"measurement": "EC50", "setting": "His6-PYR1 / biotin-ABI2", "value": "20 to 60", "unit": "µM"}, {"measurement": "EC50", "setting": "His6-PYR1 / biotin-ABI1", "value": "10 to 20", "unit": "µM"}, {"measurement": "Stimulation of the interaction between PYL2 and PP2C (binding signal)", "setting": "His6-PYL2 / biotin-PP2C", "value": "+ (+ is <25,000)"}, {"measurement": "% Phosphatase Activity ABI2", "setting": "ABI2", "value": "3.2 ± 0.7", "unit": "%"}, {"measurement": "Stimulation of the interaction between PYR1 and PP2C (binding signal)", "setting": "His6-PYR1 / biotin-PP2C", "value": "+ (+ is <25,000)"}]}, {"smiles": "CCOC(=O)CNS(=O)(=O)c1ccc2c3c(cccc13)C(=O)N2CC", "note": "[Compound 2]", "values": [{"measurement": "EC50", "setting": "His6-PYR1 / biotin-ABI2", "value": "20 to 60", "unit": "µM"}, {"measurement": "EC50", "setting": "His6-PYR1 / biotin-ABI1", "value": "10 to 20", "unit": "µM"}, {"measurement": "Stimulation of the interaction between PYL2 and PP2C (binding signal)", "setting": "His6-PYL2 / biotin-PP2C", "value": "+ (+ is <25,000)"}, {"measurement": "% Phosphatase Activity ABI2", "setting": "ABI2", "value": "3.8 ± 0.6", "unit": "%"}, {"measurement": "Stimulation of the interaction between PYR1 and PP2C (binding signal)", "setting": "His6-PYR1 / biotin-PP2C", "value": "+++ (+++ is >75,000)"}]}, {"smiles": "CCN1C(=O)c2cccc3c(S(=O)(=O)NC[C@@H]4CCCO4)ccc1c23", "note": "[Compound 11]", "values": [{"measurement": "EC50", "setting": "His6-PYR1 / biotin-ABI2", "value": "20 to 60", "unit": "µM"}, {"measurement": "EC50", "setting": "His6-PYR1 / biotin-ABI1", "value": "10 to 20", "unit": "µM"}, {"measurement": "Stimulation of the interaction between PYL2 and PP2C (binding signal)", "setting": "His6-PYL2 / biotin-PP2C", "value": "+ (+ is <25,000)"}, {"measurement": "% Phosphatase Activity ABI2", "setting": "ABI2", "value": "4.5 ± 0.5", "unit": "%"}, {"measurement": "Stimulation of the interaction between PYR1 and PP2C (binding signal)", "setting": "His6-PYR1 / biotin-PP2C", "value": "+++ (+++ is >75,000)"}]}, {"smiles": "O=S(=O)(NCc1ccccn1)c1ccc(Br)c2ccccc12", "note": "[Pyrabactin, pyrabactin]", "values": [{"measurement": "EC50", "setting": "His6-PYR1 / biotin-ABI2", "value": "5 to 10", "unit": "µM"}, {"measurement": "EC50", "setting": "His6-PYR1 / biotin-ABI1", "value": "5 to 10", "unit": "µM"}, {"measurement": "Effect on ABA-dependent PYL2 interaction with all three PP2Cs", "setting": "His6-PYL2 / biotin-PP2C; in the presence of ABA, concentration-dependent", "value": "inhibited"}, {"measurement": "Promotion of PYL2 interaction with the three PP2Cs", "setting": "His6-PYL2 / biotin-PP2C; [1]", "value": "did not promote"}, {"measurement": "% Phosphatase Activity ABI2", "setting": "ABI2", "value": "1.5 ± 0.8", "unit": "%"}, {"measurement": "Promotion of PYR1 interaction with the three PP2Cs", "setting": "His6-PYR1 / biotin-PP2C; [1]", "value": "strongly promoted"}]}]}
